Data: patent US12252524B2, “GIP/GLP1 co-agonist compounds” (Eli Lilly and Company, priority 2018, dated 2025)
Numbered stars: 1 amine (or outer) side, 2 acyl side, 3 side chain; on linkers, the order of the positions; unused ones are H or OH. Square brackets hold non-standard residues; d marks the D form. Side chains are listed from the residue outwards. Peptide text beside a SMILES is read from it. * marks the point of attachment. C20 diacid = O=C(O)CCCCCCCCCCCCCCCCCCC(=O)*; γGlu = O=C(O)[C@H](CCC(=O)[*:2])N[*:1]; αMeF = C[C@](N)(Cc1ccccc1)C(=O)O; AEEA = NCCOCCOCC(=O)O; Aib = CC(C)(N)C(=O)O

Key:
[1] = biological target: human GLP-1 receptor (GLP-1R) (Homo sapiens, UniProt P43220); assay: cAMP pharmacological functional assay in presence of casein, hGLP-1R; type: cell-based; conditions: HEK293 cells expressing hGLP-1R, 0.1% Casein, geometric mean; read-out: hGLP1R cAMP Rel EC50 nM (SEM, n)
[2] = biological target: T1, gastric inhibitory peptide receptor (GIPR) (Homo sapiens, UniProt P48546); assay: cAMP pharmacological functional assay in presence of casein, hGIPR; type: cell-based; conditions: HEK293 cells expressing hGIPR, 0.1% Casein, geometric mean; read-out: hGIPR cAMP Rel EC50 nM (SEM, n)
T1 sequence (P48546 22-466): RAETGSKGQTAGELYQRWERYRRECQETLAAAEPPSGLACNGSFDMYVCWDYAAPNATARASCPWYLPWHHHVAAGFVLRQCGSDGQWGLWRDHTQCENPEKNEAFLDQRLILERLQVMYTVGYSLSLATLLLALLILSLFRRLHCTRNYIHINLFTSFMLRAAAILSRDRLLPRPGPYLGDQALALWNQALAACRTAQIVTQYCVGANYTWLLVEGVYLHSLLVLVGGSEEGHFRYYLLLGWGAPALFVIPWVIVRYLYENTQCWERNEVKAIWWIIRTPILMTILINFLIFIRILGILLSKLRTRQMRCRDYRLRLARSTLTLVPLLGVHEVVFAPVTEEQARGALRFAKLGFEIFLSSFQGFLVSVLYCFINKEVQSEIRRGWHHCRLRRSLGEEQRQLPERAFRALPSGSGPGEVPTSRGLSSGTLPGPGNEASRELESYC

human GLP-1 receptor (GLP-1R), sequence (P43220 24-463): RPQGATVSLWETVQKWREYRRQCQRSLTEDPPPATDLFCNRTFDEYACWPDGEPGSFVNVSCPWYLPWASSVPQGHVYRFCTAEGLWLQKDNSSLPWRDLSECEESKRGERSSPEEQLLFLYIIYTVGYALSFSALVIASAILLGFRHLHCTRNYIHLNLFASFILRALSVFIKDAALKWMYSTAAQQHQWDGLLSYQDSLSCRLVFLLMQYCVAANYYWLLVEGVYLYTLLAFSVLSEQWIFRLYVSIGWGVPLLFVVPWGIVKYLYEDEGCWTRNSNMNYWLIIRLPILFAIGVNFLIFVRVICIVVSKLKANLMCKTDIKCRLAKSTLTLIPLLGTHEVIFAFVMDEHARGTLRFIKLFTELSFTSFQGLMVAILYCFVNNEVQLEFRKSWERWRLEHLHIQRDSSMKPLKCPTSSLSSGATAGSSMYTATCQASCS

SMILES	EC50 [1] [nM]	EC50 [2] [nM]
CC[C@H](C)[C@H](NC(=O)[C@H](CC(C)C)NC(=O)[C@H](Cc1ccc(O)cc1)NC(=O)[C@H](CCC(=O)O)NC(=O)[C@@H](NC(=O)[C@H](Cc1ccccc1)NC(=O)[C@H](C)NC(=O)C(C)(C)NC(=O)[C@H](CCC(N)=O)NC(=O)[C@H](C)NC(=O)[C@H](CCCCNC(=O)COCCOCCNC(=O)COCCOCCNC(=O)CC[C@H](NC(=O)CCCCCCCCCCCCCCCCCCC(=O)O)C(=O)O)NC(=O)[C@H](CCCCN)NC(=O)[C@H](CC(=O)O)NC(=O)[C@H](CC(C)C)NC(=O)[C@H](CC(C)C)NC(=O)[C@@H](NC(=O)[C@H](CO)NC(=O)[C@H](Cc1ccc(O)cc1)NC(=O)[C@H](CC(=O)O)NC(=O)[C@H](CO)NC(=O)[C@@H](NC(=O)[C@](C)(Cc1ccccc1)NC(=O)[C@@H](NC(=O)CNC(=O)[C@H](CCC(=O)O)NC(=O)C(C)(C)NC(=O)[C@@H](N)Cc1ccc(O)cc1)[C@@H](C)O)[C@@H](C)O)[C@@H](C)CC)[C@@H](C)CC)C(=O)N[C@@H](CCC(=O)O)C(=O)NCC(=O)NCC(N)=O [Example 98] (H-Y[Aib]EGT[αMeF]TSDYSILLDKK([AEEA-AEEA-γGlu-C20 diacid])AQ[Aib]AFIEYLIEGG-NH2)	0.157	0.0718
CC[C@H](C)[C@H](NC(=O)[C@H](CC(C)C)NC(=O)[C@H](Cc1ccc(O)cc1)NC(=O)[C@H](CCC(=O)O)NC(=O)[C@@H](NC(=O)[C@H](Cc1ccccc1)NC(=O)[C@H](C)NC(=O)C(C)(C)NC(=O)[C@H](CCC(N)=O)NC(=O)[C@H](C)NC(=O)[C@H](CCCCNC(=O)COCCOCCNC(=O)COCCOCCNC(=O)CC[C@H](NC(=O)CCCCCCCCCCCCCCCCCCC(=O)O)C(=O)O)NC(=O)[C@H](CCC(=O)O)NC(=O)[C@H](CC(=O)O)NC(=O)[C@H](CC(C)C)NC(=O)C(C)(C)NC(=O)[C@@H](NC(=O)[C@H](CO)NC(=O)[C@H](Cc1ccc(O)cc1)NC(=O)[C@H](CC(=O)O)NC(=O)[C@H](CO)NC(=O)[C@@H](NC(=O)[C@](C)(Cc1ccccc1)NC(=O)[C@@H](NC(=O)CNC(=O)[C@H](CCC(=O)O)NC(=O)C(C)(C)NC(=O)[C@@H](N)Cc1ccc(O)cc1)[C@@H](C)O)[C@@H](C)O)[C@@H](C)CC)[C@@H](C)CC)C(=O)N[C@@H](CCC(=O)O)C(=O)NCC(=O)NCC(N)=O [Example 102] (H-Y[Aib]EGT[αMeF]TSDYSI[Aib]LDEK([AEEA-AEEA-γGlu-C20 diacid])AQ[Aib]AFIEYLIEGG-NH2)	0.0628	0.178
CC[C@H](C)[C@H](NC(=O)[C@H](CC(C)C)NC(=O)[C@H](Cc1ccc(O)cc1)NC(=O)[C@H](CCC(=O)O)NC(=O)[C@@H](NC(=O)[C@H](Cc1ccccc1)NC(=O)[C@H](C)NC(=O)C(C)(C)NC(=O)[C@H](CCC(N)=O)NC(=O)[C@H](C)NC(=O)[C@H](CCCCNC(=O)COCCOCCNC(=O)[C@H]1CC[C@H](CNC(=O)CC[C@H](NC(=O)CCCCCCCCCCCCCCCCCCC(=O)O)C(=O)O)CC1)NC(=O)[C@H](CCCCN)NC(=O)[C@H](CC(=O)O)NC(=O)[C@H](CC(C)C)NC(=O)[C@H](CC(C)C)NC(=O)[C@@H](NC(=O)[C@H](CO)NC(=O)[C@H](Cc1ccc(O)cc1)NC(=O)[C@H](CC(=O)O)NC(=O)[C@H](CO)NC(=O)[C@@H](NC(=O)[C@H](Cc1ccccc1)NC(=O)[C@@H](NC(=O)CNC(=O)[C@H](CCC(=O)O)NC(=O)C(C)(C)NC(=O)[C@@H](N)Cc1ccc(O)cc1)[C@@H](C)O)[C@@H](C)O)[C@@H](C)CC)[C@@H](C)CC)C(=O)N[C@@H](CCC(=O)O)C(=O)NCC(=O)NCC(=O)N1CCC[C@H]1C(=O)N[C@@H](CO)C(=O)N[C@@H](CO)C(=O)NCC(=O)N[C@@H](C)C(=O)N1CCC[C@H]1C(=O)N1CCC[C@H]1C(=O)N1CCC[C@H]1C(=O)N[C@@H](CO)C(N)=O [Example 111]	0.308	0.141
CC[C@H](C)[C@H](NC(=O)[C@H](CC(C)C)NC(=O)[C@H](Cc1ccc(O)cc1)NC(=O)[C@H](CCC(=O)O)NC(=O)[C@@H](NC(=O)[C@H](Cc1ccccc1)NC(=O)[C@H](C)NC(=O)C(C)(C)NC(=O)[C@H](CCC(N)=O)NC(=O)[C@H](C)NC(=O)[C@H](CCCCNC(=O)COCCOCCNC(=O)COCCOCCNC(=O)[C@@H](N)CCCCNC(=O)CCCCCCCCCCCCCCCCCCC(=O)O)NC(=O)[C@H](CCCCN)NC(=O)[C@H](CC(=O)O)NC(=O)[C@H](CC(C)C)NC(=O)[C@H](CC(C)C)NC(=O)[C@@H](NC(=O)[C@H](CO)NC(=O)[C@H](Cc1ccc(O)cc1)NC(=O)[C@H](CC(=O)O)NC(=O)[C@H](CO)NC(=O)[C@@H](NC(=O)[C@H](Cc1ccccc1)NC(=O)[C@@H](NC(=O)CNC(=O)[C@H](CCC(=O)O)NC(=O)C(C)(C)NC(=O)[C@@H](N)Cc1ccc(O)cc1)[C@@H](C)O)[C@@H](C)O)[C@@H](C)CC)[C@@H](C)CC)C(=O)N[C@@H](CCC(=O)O)C(=O)NCC(=O)NCC(=O)N1CCC[C@H]1C(=O)N[C@@H](CO)C(=O)N[C@@H](CO)C(=O)NCC(=O)N[C@@H](C)C(=O)N1CCC[C@H]1C(=O)N1CCC[C@H]1C(=O)N1CCC[C@H]1C(=O)N[C@@H](CO)C(N)=O [Example 113]	0.233	0.166
CC[C@H](C)[C@H](NC(=O)[C@H](CC(C)C)NC(=O)[C@H](Cc1ccc(O)cc1)NC(=O)[C@H](CCC(=O)O)NC(=O)[C@@H](NC(=O)[C@H](Cc1ccccc1)NC(=O)[C@H](C)NC(=O)C(C)(C)NC(=O)[C@H](CCC(N)=O)NC(=O)[C@H](C)NC(=O)[C@H](CCCCNC(=O)COCCOCCNC(=O)[C@@H](N)CCCCNC(=O)[C@@H](N)CCCCNC(=O)CCCCCCCCCCCCCCCCCCC(=O)O)NC(=O)[C@H](CCCCN)NC(=O)[C@H](CC(=O)O)NC(=O)[C@H](CC(C)C)NC(=O)[C@H](CC(C)C)NC(=O)[C@@H](NC(=O)[C@H](CO)NC(=O)[C@H](Cc1ccc(O)cc1)NC(=O)[C@H](CC(=O)O)NC(=O)[C@H](CO)NC(=O)[C@@H](NC(=O)[C@H](Cc1ccccc1)NC(=O)[C@@H](NC(=O)CNC(=O)[C@H](CCC(=O)O)NC(=O)C(C)(C)NC(=O)[C@@H](N)Cc1ccc(O)cc1)[C@@H](C)O)[C@@H](C)O)[C@@H](C)CC)[C@@H](C)CC)C(=O)N[C@@H](CCC(=O)O)C(=O)NCC(=O)NCC(=O)N1CCC[C@H]1C(=O)N[C@@H](CO)C(=O)N[C@@H](CO)C(=O)NCC(=O)N[C@@H](C)C(=O)N1CCC[C@H]1C(=O)N1CCC[C@H]1C(=O)N1CCC[C@H]1C(=O)N[C@@H](CO)C(N)=O [Example 114]	0.267	0.133
CC[C@H](C)[C@H](NC(=O)[C@H](CC(C)C)NC(=O)[C@H](Cc1ccc(O)cc1)NC(=O)[C@H](CCC(=O)O)NC(=O)[C@@H](NC(=O)[C@H](Cc1ccccc1)NC(=O)[C@H](C)NC(=O)C(C)(C)NC(=O)[C@H](CCC(N)=O)NC(=O)[C@H](C)NC(=O)[C@H](CCCCNC(=O)COCCOCCNC(=O)COCCOCCNC(=O)CC[C@H](NC(=O)CCCCCCCCCCCCCCCCCCC(=O)O)C(=O)O)NC(=O)[C@H](CCCCN)NC(=O)[C@H](CC(=O)O)NC(=O)[C@H](CC(C)C)NC(=O)[C@H](CC(C)C)NC(=O)[C@@H](NC(=O)[C@H](CO)NC(=O)[C@](C)(Cc1ccccc1)NC(=O)[C@H](CC(=O)O)NC(=O)[C@H](CO)NC(=O)[C@@H](NC(=O)[C@](C)(Cc1ccccc1)NC(=O)[C@@H](NC(=O)CNC(=O)[C@H](CCC(=O)O)NC(=O)C(C)(C)NC(=O)[C@@H](N)Cc1ccc(O)cc1)[C@@H](C)O)[C@@H](C)O)[C@@H](C)CC)[C@@H](C)CC)C(=O)N[C@@H](CCC(=O)O)C(=O)NCC(=O)NCC(=O)N1CCC[C@H]1C(=O)N[C@@H](CO)C(=O)N[C@@H](CO)C(=O)NCC(=O)N[C@@H](C)C(=O)N1CCC[C@H]1C(=O)N1CCC[C@H]1C(=O)N1CCC[C@H]1C(=O)N[C@@H](CO)C(N)=O [Example 131] (H-Y[Aib]EGT[αMeF]TSD[αMeF]SILLDKK([AEEA-AEEA-γGlu-C20 diacid])AQ[Aib]AFIEYLIEGGPSSGAPPPS-NH2)	0.156	0.183
